The values that follow are results of earlier work, collected in PubChem BioAssay AID1259409 (Chemical Carcinogenesis Research Information System (CCRIS), 2018).

The subject of this data set is rodent chemically induced tumor inhibition, incidence and multiplicity. In words: CCRIS tumor inhibitor studies.

Each structure is given as a SMILES string.

With `Cc1cc2nc3c(=O)[nH]c(=O)nc-3n(C[C@H](O)[C@H](O)[C@H](O)CO)c2cc1C`, the “tumour outcome (control, treated, inhibition, significance)” value runs as follows: (Carcinogen: 7,12-DIMETHYLBENZ[A]ANTHRACENE, 57-97-6, Dose [Inhibitor]: 2 MG IN DRINKING WATER DAILY STARTING 4 WK BEFORE CARCINOGEN TREATMENT AND CONTINUING FOR DURATION OF THE STUDY (STUDY D, Route [Inhibitor]: ORAL, Species: MOUSE, Strain/Sex: 101/MALE, FEMALE, Target Tissue: Type of Lesion: SKIN: PAPILLOMA, Dose [Carcinogen]: 225 UG IN 0.15 ML ACETONE ONCE, Promoter: CROTON OIL, 8001-28-3) 17/19 (89%), 19/19 (100%), -12%, not calculated; (Carcinogen: BENZO[A]PYRENE, 50-32-8, Dose [Inhibitor]: 0.2% IN DIET DAILY STARTING 4 WK BEFORE START OF CARCINOGEN TREATMENT AND CONTINUING FOR DURATION OF STUDY (STUDY DURATI, Route [Inhibitor]: ORAL, Species: MOUSE, Strain/Sex: 101/MALE, FEMALE, Target Tissue: Type of Lesion: SKIN: TUMOR (BENIGN, MALIGNANT), Dose [Carcinogen]: 0.2 ML OF 0.025% SOLUTION IN ACETONE 2/WK FOR 23 WK STARTING 4 WK AFTER STAR OF AGENT TREATMENT, Promoter: NONE USED) 21/30 (70%), 25/28 (89%), -27%, not calculated; (Carcinogen: BENZO[A]PYRENE, 50-32-8, Dose [Inhibitor]: 0.25 MG 2/WK FOR 24 WK STARTING 4 WK BEFORE START OF CARCINOGEN TREATMENT AN D CONTINUING FOR DURATION OF STUDY (STUDY D, Route [Inhibitor]: SUBCUTANEOUS, Species: MOUSE, Strain/Sex: 101/MALE, FEMALE, Target Tissue: Type of Lesion: SKIN: MALIGNANT TUMOR, Dose [Carcinogen]: 0.2 ML OF 0.25% 2/WK FOR 20 WK, Promoter: NONE USED) 12/18 (67%), 8/19 (42%), 37%, not calculated; (Carcinogen: BENZO[A]PYRENE, 50-32-8, Dose [Inhibitor]: 0.6% IN DIET DAILY STARTING 4 WK BEFORE START OF CARCINOGEN TREATMENT AND CONTINUING FOR DURATION OF STUDY (STUDY DURATI, Route [Inhibitor]: ORAL, Species: MOUSE, Strain/Sex: 101/MALE, FEMALE, Target Tissue: Type of Lesion: SKIN: TUMOR (BENIGN, MALIGNANT), Dose [Carcinogen]: 0.2 ML OF 0.025% SOLUTION IN ACETONE 2/WK FOR 23 WK, Promoter: NONE USED) 21/30 (70%), 32/37 (86%), -23%, not calculated; (Carcinogen: BENZO[A]PYRENE, 50-32-8, Dose [Inhibitor]: 2.5 MG 2/WK FOR 24 WK STARTING 4 WK BEFORE START OF CARCINOGEN TREATMENT AND CONTINUING FOR DURATION OF STUDY (STUDY DUR, Route [Inhibitor]: SUBCUTANEOUS, Species: MOUSE, Strain/Sex: 101/MALE, FEMALE, Target Tissue: Type of Lesion: SKIN: PAPILLOMA, Dose [Carcinogen]: 0.2 ML OF 0.25% 2/WK FOR 20 WK, Promoter: NONE USED) 13/18 (72%), 8/19 (42%), 42%, not calculated; (Carcinogen: UV IRRADIATION, Dose [Inhibitor]: 15 MG/ML DRINKING WATER DAILY FOR DURATION OF STUDY (STUDY DURATION: 11 MO), Route [Inhibitor]: ORAL, Species: MOUSE, Strain/Sex: HR-HAIRLESS/MALE, Target Tissue: Type of Lesion: SKIN: SQUAMOUS CELL CARCINOMA, Dose [Carcinogen]: 5 MIN/D 6 D/WK FOR DURATION OF STUDY, Promoter: NONE USED) 6/6 (100%), 6/6 (100%), 0%, not significant. The “tumour outcome (control, treated, inhibition, significance)” value (Carcinogen: UV IRRADIATION, Dose [Inhibitor]: 15 MG/ML PROPYLENE GLYCOL DAILY FOR DURATION OF STUDY (STUDY DURATION: 11 MO), Route [Inhibitor]: DERMAL, Species: MOUSE, Strain/Sex: HR-HAIRLESS/MALE, Target Tissue: Type of Lesion: SKIN: SQUAMOUS CELL CARCINOMA, Dose [Carcinogen]: 5 MIN/D 6 D/WK FOR DURATION OF STUDY, Promoter: NONE USED) is 6/6 (100%), 7/7 (100%), 0%, not significant.
With `NC(N)=S`, the outcome (Carcinogen: N-BIS-(2-HYDROXYPROPYL)NITROSAMINE [53609-64-6], Dose [Inhibitor]: 0, 0.2% IN DIET 4 WK BEGINNING 1 WK POST CARCINOGEN DOSE (STUDY DURATION: 5 WK), Route [Inhibitor]: ORAL, Species: RAT, Strain/Sex: F344/DUCRJ/MALE, Target Tissue: Type of Lesion: THYROID GLAND: ADENOMATOUS GROWTH PATTERN, Dose [Carcinogen]: 2800 MG/KG BW ONCE (STUDY DURATION: 5 WK), Promoter: NONE) is on record as 0%, 30%, -100%, not significant.
In the case of `c1ccc2c(c1)-c1cccc3cccc-2c13`, the “tumour outcome (control, treated, inhibition, significance)” value (Carcinogen: BENZO[A]PYRENE, 50-32-8, Dose [Inhibitor]: 40 UG IN 0.1 ML ACETONE 3/WK ADMINISTERED SIMULTANEOUSLY WITH CARCINOGEN FOR DURATION OF STUDY (STUDY DURATION: 440 D), Route [Inhibitor]: DERMAL, Species: MOUSE, Strain/Sex: ICR/FEMALE, Target Tissue: Type of Lesion: SKIN: PAPILLOMA, Dose [Carcinogen]: 5 UG IN 0.1 ML ACETONE 3/WK FOR DURATION OF STUDY, Promoter: NONE USED) is listed as 16/50 (32%), 39/50 (78%), -144%, not calculated and the “tumour outcome (control, treated, inhibition, significance)” value (Carcinogen: BENZO[A]PYRENE, 50-32-8, Dose [Inhibitor]: 40 UG IN 0.1 ML ACETONE 3/WK ADMINISTERED SIMULTANEOUSLY WITH CARCINOGEN FOR DURATION OF STUDY (STUDY DURATION: 440 D), Route [Inhibitor]: DERMAL, Species: MOUSE, Strain/Sex: ICR/FEMALE, Target Tissue: Type of Lesion: SKIN: SQUAMOUS CARCINOMA, Dose [Carcinogen]: 5 UG IN 0.1 ML ACETONE 3/WK FOR DURATION OF STUDY, Promoter: NONE USED) is on record as 12/50 (24%), 37/50 (74%), -208%, not calculated.
Turning to `C[C@@]12CCc3occc3[C@H]1CC[C@@]13C[C@@H](CC[C@H]12)[C@@](O)(CO)C3`, the “tumour outcome (control, treated, inhibition, significance)” value is 14/14 (100%), 14/14 (100%), 0%, not significant (Carcinogen: 7,12-DIMETHYLBENZ[A]ANTHRACENE, 57-97-6, Dose [Inhibitor]: 0, 0.2 G/KG OF DIET OF 50:50 MIXTURE OF KAHWEOL AND CAFESTOL FOR 14 WK BEGINNING 1 WK PRIOR TO CARCINOGEN TREATMENT (STU, Route [Inhibitor]: ORAL, Species: HAMSTER, Strain/Sex: SYRIAN/FEMALE, Target Tissue: Type of Lesion: BUCCAL POUCH: TUMOR, Dose [Carcinogen]: 0.5% SOLUTION IN MINERAL OIL PAINTED ON LEFT BUCCAL POUCH 3/WK FOR 13 WK, Promoter: NONE USED) and 14/14 (100%), 14/15 (93%), 7%, not significant (Carcinogen: 7,12-DIMETHYLBENZ[A]ANTHRACENE, 57-97-6, Dose [Inhibitor]: 0, 2 G/KG OF DIET OF 50:50 MIXTURE OF KAHWEOL AND CAFESTOL FOR 14 WK BEGINNING 1 WK PRIOR TO CARCINOGEN TREATMENT (STUDY, Route [Inhibitor]: ORAL, Species: HAMSTER, Strain/Sex: SYRIAN/FEMALE, Target Tissue: Type of Lesion: BUCCAL POUCH: TUMOR, Dose [Carcinogen]: 0.5% SOLUTION IN MINERAL OIL PAINTED ON LEFT BUCCAL POUCH 3/WK FOR 13 WK, Promoter: NONE USED).
In the case of `CCCCC(O)CCC(=O)c1ccccc1` (stereo not given), the “tumour outcome (control, treated, inhibition, significance)” value (Carcinogen: 4-(METHYLNITROSAMINO)-1-(3-PYRIDYL)-1-BUTANONE, 64091-91-4, Dose [Inhibitor]: 0, 25 UMOL IN 0.1 ML CORN OIL ONCE 2 HR PRIOR TO CARCINOGEN DOSE (STUDY DURATION: 16 WK), Route [Inhibitor]: GAVAGE, Species: MOUSE, Strain/Sex: STRAIN-A/FEMALE, Target Tissue: Type of Lesion: LUNG: TUMOR, Dose [Carcinogen]: 10 UMOL IN 0.1 ML SALINE ONCE, Promoter: NONE USED) was 100%, 100%, 0%, not significant.
As for `C/C=C/C1=CC2=C(CO1)C(=O)[C@]1(C)OC(=O)[C@H](C(=O)CCCCC)[C@H]1C2`, the “tumour outcome (control, treated, inhibition, significance)” value is 100%, 80%, 20%, not significant (Carcinogen: PEROXYNITRITE [19059-14-4], Dose [Inhibitor]: 0.0025% FOR 2 WKS BEFORE PROMOTER (STUDY DURATION: 20 WK), Route [Inhibitor]: DRINKING WATER, Species: MOUSE, Strain/Sex: SENCAR/FEMALE (15,?)/(15,?), Target Tissue: Type of Lesion: SKIN: PAPILLOMA, Dose [Carcinogen]: 390 NM IN 0.1 ML 1 MM NAOH ONCE 1 WK AFTER INHIBITOR, Promoter: 12-O-TETRADECANOYLPHORBOL-13-ACETATE [16561-29-8]) and 100%, 53%, 47%, not significant (Carcinogen: UVB IRRADIATION, Dose [Inhibitor]: 0.0025% IN DRINKING WATER FOR 2 WKS BEGINNING WHILE MICE RECEIVED UVB (STUDY DURATION: 20 WK), Route [Inhibitor]: DRINKING WATER, Species: MOUSE, Strain/Sex: SENCAR/FEMALE (15,?)/(15,?), Target Tissue: Type of Lesion: SKIN: PAPILLOMA, Dose [Carcinogen]: 15 MIN EACH D FOR 3 D, Promoter: 12-O-TETRADECANOYLPHORBOL-13-ACETATE [16561-29-8]).
